Reference: patent US4132778A, “Antibiotic A-32887” (Eli Lilly and Company, priority 1977, dated 1979)

Key:
E. tenella AND E. maxima = test: Anticoccidial feeding test in chicks, E. tenella and E. maxima (Table XI); format: in vivo; parameters: Average Lesion Score, Total Intestinal / Average Lesion Score, Cecal: scale not given here; Mortality: unit not given here; details: for Mortality: due to coccidiosis
Protocol: ^1 70,000 oocysts/bird of each of E. tenella and E. maxima
^2 Infected 48 hours postmedication; terminated seven days
^3 Four replicates; five birds/replicate

Actinomyces israelii = test: Standard agar-dilution assay, anaerobic bacteria, Table IX; format: cell-based; details: 24-hour incubation
Protocol: (§1) Table IX summarizes the MIC's at which A-32887 (Na-K salt) inhibits various anaerobic bacteria, as determined by standard agar-dilution assay. End points were read after 24-hour incubation.

Bacteriodes vulgatis = test: as above; format: cell-based; details: 24-hour incubation
Protocol: as §1

[1] = tested on: Bacteriodes fragilis ssp fragilis 111; test: as above; format: cell-based; details: 24-hour incubation
Protocol: as §1

Clostridium septicum = test: as above; format: cell-based; details: 24-hour incubation
Protocol: as §1

[2] = tested on: Bacteriodes melaninogenicus 1856/28; test: as above; format: cell-based; details: 24-hour incubation
Protocol: as §1

Southern armyworm = test: Insecticidal activity; format: in vivo; details: 1000 ppm
Text: (§2) In another aspect, the A-32887 compounds are useful as insecticides. For example, A-32887 (Na-K salt) is active against insects such as Mexican bean beetle, Southern armyworm and housefly when applied at a rate of 1000 ppm.

housefly = test: Insecticidal activity; format: in vivo; details: 1000 ppm
Text: as §2

Mexican bean beetle = test: Insecticidal activity; format: in vivo; details: 1000 ppm
Text: as §2

[3] = tested on: Peptococcus asaccharolyticus; test: Standard agar-dilution assay, anaerobic bacteria, Table IX; format: cell-based; details: 24-hour incubation
Peptococcus prevoti = test: as above; format: cell-based; details: 24-hour incubation
coccidia = test: Feeding experiments in chicks challenged with coccidia; format: in vivo, Eimeria species; chicks; details: levels as low as 40 ppm in feed of young chickens
[4] = tested on: Bacteriodes fragilis ssp fragilis 1936B; test: Standard agar-dilution assay, anaerobic bacteria, Table IX; format: cell-based; details: 24-hour incubation
Bacteriodes corrodens = test: as above; format: cell-based; details: 24-hour incubation
Clostridium perfringens = format: cell-based; details: 24-hour incubation
[5] = tested on: Peptostreptococcus anaerobius; test: Standard agar-dilution assay, anaerobic bacteria, Table IX; format: cell-based; details: 24-hour incubation
[6] = tested on: Peptostreptococcus intermedius; test: as above; format: cell-based; details: 24-hour incubation

**Q.** Which results are given for CO[C@H]1CC[C@H](OC2[C@@H](C)[C@@](C)(O)O[C@H]([C@H]3CC[C@H]([C@@H]4CC[C@H]([C@@]5(C)O[C@]6(O[C@H](C[C@@H]7O[C@](O)([C@@H](O)C(=O)O)[C@@H](C)[C@H](OC)[C@@]7(C)OC)C[C@@H](OC)[C@H]6C)[C@H](C)[C@H]5OC)O4)O3)[C@H]2C)O[C@@H]1C.[K+].[Na+] (stereo partly shown) [A-32887 (Na-K salt)]?
**A.** Average Lesion Score, Cecal (E. tenella AND E. maxima; 40 ppm in feed): 1.6; Average Lesion Score, Total Intestinal (E. tenella AND E. maxima; 40 ppm in feed): 4.9; Mortality (E. tenella AND E. maxima; 40 ppm in feed): 0; Average Lesion Score, Cecal (E. tenella AND E. maxima; 60 ppm in feed): 0.6; Average Lesion Score, Total Intestinal (E. tenella AND E. maxima; 60 ppm in feed): 5.9; Mortality (E. tenella AND E. maxima; 60 ppm in feed): 0; Average Lesion Score, Cecal (E. tenella AND E. maxima; 80 ppm in feed): 0.3; Average Lesion Score, Total Intestinal (E. tenella AND E. maxima; 80 ppm in feed): 3.0; Mortality (E. tenella AND E. maxima; 80 ppm in feed): 0; Average Lesion Score, Cecal (E. tenella AND E. maxima; 100 ppm in feed): 0; Average Lesion Score, Total Intestinal (E. tenella AND E. maxima; 100 ppm in feed): 1.6; Mortality (E. tenella AND E. maxima; 100 ppm in feed): 0; MIC (Actinomyces israelii): ≤ 0.5 µg/mL; MIC (Bacteriodes vulgatis): 4 µg/mL; MIC [1]: 2 µg/mL; MIC (Clostridium septicum): ≤ 0.5 µg/mL; MIC [2]: 32 µg/mL; insecticidal activity (Southern armyworm): active; insecticidal activity (housefly): active; insecticidal activity (Mexican bean beetle): active; MIC [3]: ≤ 0.5 µg/mL; MIC (Peptococcus prevoti): ≤ 0.5 µg/mL; mortality and number of lesions in challenged chicks (coccidia): decreases mortality and the number of lesions; MIC [4]: 2 µg/mL; MIC (Bacteriodes corrodens): 2 µg/mL; MIC (Clostridium perfringens): ≤ 0.5 µg/mL; MIC [5]: ≤ 0.5 µg/mL; MIC [6]: 1.0 µg/mL
